According to US20070099841A1, “Prodrugs of T3 and T4 with enhanced bioavailability” (New River Pharmaceuticals Inc., priority 2005, published 2007):
Several values for one entry are separate records, joined by “and”; a condition that tells them apart may be missing. Identical values can stand only once. Like-named read-outs stand apart in the source and are kept apart here. Values belong to the compound of their own block, whether it stands above or below them.

Key:
[1] = parameters: species or system Sprague-Dawley rats; conditions: rat, in vivo
Method: Compounds were tested in Sprague-dawley rats (˜250 g). Defined doses were delivered as oral solutions in 0.5% sodium bicarbonate buffer with T3 sodium salt containing 12 mcgT3/kg or triiodothyronine composition containing the equivalent amount of T3. Rats were dosed immediately following 0 hour serum collection. Serum was collected from rats at 2, 4, 6, 9, 12 and 24 hours after capsule delivery. Total serum T3 concentrations were determined by ELISA using a commercially available kit (Total Triiodothyronine (total T3) ELISA KIT, product #1700, ALPHA DIAGNOSTIC, San Antonio, Tex.). Total serum T4 concentrations were determined by ELISA using a commercially available kit (Total Thyronine (Total T4) ELISA KIT, product #1100, ALPHA DIAGNOSTIC, San Antonio, Tex.).
The general procedures described above were employed for the experimental data described below. These procedures are subject to minor variations in timing and weight of rats, etc.
(§1) T3 sodium, G-T3, V-T3, I-T3, Y-T3, A2-T3, P2-T3, or F2-T3 were administered at equimolar doses to Sprague-Dawley rats (12 μg/kg T3; HED˜120 μg T3 sodium; n=6, per group) that were hypothyroid due to removal of the thyroid gland approximately one week prior to evaluation. Serum was collected at 0 (pre-dose), 1, 2, 4, 6, 8 and 12 hours post-dose and analyzed for total T3 and TSH by chemiluminescent immunoassay (Immulite CIA). […] At 1 hour post dose the mean level of Total T3 was 327.3, 429.5, 432.7, 403.3, 431, and 433.1 ng/ml for G-T3, V-T3, I-T3, Y-T3, P2-T3, and F2-T3 dosed animals respectively as compared to 577 ng/ml for T3 sodium dosed animals. Applicants note that some variation in these values may be present as with A2-T3 (FIGS. 15 and 16).

TSH = experiment: Serum TSH after oral administration to hypothyroid rats (chemiluminescent immunoassay); assay type: in vivo, Sprague-Dawley rats; conditions: for TSH levels in response to administration: oral 12 μg/kg T3; for Individual animal TSH: individual animals 1-6, oral 12 μg/kg T3
Method: as §1

[2] = 0 h (pre-dose), mean n=6, oral 12 μg/kg T3
[3] = 1 h, mean n=6, oral 12 μg/kg T3
[4] = 2 h, mean n=6, oral 12 μg/kg T3
[5] = 4 h, mean n=6, oral 12 μg/kg T3
[6] = 6 h, mean n=6, oral 12 μg/kg T3
[7] = 8 h, mean n=6, oral 12 μg/kg T3
[8] = 12 h, mean n=6, oral 12 μg/kg T3

Total T3 AUC, % (of T3) [1]: 92.3%
Total T3Δ dAUC, % (of T3) [1]: 97.9%
Variability of T3 absorption compared with T3 sodium [1]: decreased variability of T3 absorption
mean level of Total T3 at 1 hour post dose ([1]; po): 431 ng/mL
Compound: O=C(O)[C@H](Cc1cc(I)c(Oc2ccc(O)c(I)c2)c(I)c1)NC(=O)[C@@H]1CCCN1C(=O)[C@@H]1CCCN1 [P2-T3]
TSH, mean (TSH; [2]): 2.988 μIU
TSH, mean (TSH; [3]): 2.438 μIU
TSH, mean (TSH; [4]): 1.363 μIU
TSH, mean (TSH; [5]): 0.346 μIU
TSH, mean (TSH; [6]): 0.21 μIU
TSH, mean (TSH; [7]): 0.189 μIU
TSH, mean (TSH; [8]): 0.735 μIU
TSH levels in response to administration (TSH): decreased rapidly

Tmax, % T3 ([1]; Sprague-Dawley): 100%
Tmax, Low − High ([1]; Sprague-Dawley): 1 − 6
Total T3 AUC, % (of T3) ([1]; Sprague-Dawley): 100%
Total T3 AUClast, % T3 ([1]; Sprague-Dawley): 100%
Total T3 Cmax, % T3 ([1]; Sprague-Dawley): 100%
Total T3Δ AUClast, % T3 ([1]; Sprague-Dawley): 100%
Total T3Δ Cmax, % T3 ([1]; Sprague-Dawley): 100%
Total T3Δ dAUC, % (of T3) ([1]; Sprague-Dawley): 100%
Total T3 Tmax ([1]; Sprague-Dawley, po, 12 ug/kg): 3.2 h
Total T3 Tmax, mean ([1]; Sprague-Dawley, po, 12 ug/kg): 3.2 h
Total T3Δ Tmax, mean ([1]; Sprague-Dawley, po, 12 ug/kg): 3.2 h
mean level of Total T3 at 1 hour post dose ([1]; Sprague-Dawley, po, 1 h): 577 ng/mL
Total T3 AUClast, Low − High [1]: 4292 − 6421 ng · h/dL
Total T3 Cmax, Low − High [1]: 484 − 915 ng/dL
Total T3Δ AUClast, Low − High [1]: 3688 − 5526 ng · h/dL
Total T3Δ Cmax, Low − High [1]: 444 − 875 ng/dL
Total T3 AUC ([1]; po, 12 ug/kg): 5171
Compound: N[C@@H](Cc1cc(I)c(Oc2ccc(O)c(I)c2)c(I)c1)C(=O)O [T3 sodium, 3,3′,5-triiodo-L-thyronine]
Individual animal TSH (TSH; 0 h (pre-dose)): 1.840 μIU and 2.296 μIU and 2.088 μIU and 2.480 μIU and 1.884 μIU and 2.572 μIU
TSH, mean (TSH; [2]): 2.193 μIU
Individual animal TSH (TSH; 1 h): 1.680 μIU and 1.796 μIU and 1.924 μIU and 2.580 μIU and 1.868 μIU and 2.344 μIU
TSH, mean (TSH; [3]): 2.032 μIU
Individual animal TSH (TSH; 2 h): 1.264 μIU and 1.284 μIU and 0.920 μIU and 1.116 μIU and 1.080 μIU and 1.180 μIU
TSH, mean (TSH; [4]): 1.141 μIU
Individual animal TSH (TSH; 4 h): 0.240 μIU and 0.252 μIU (2×) and 0.204 μIU and 0.200 μIU and 0.312 μIU
TSH, mean (TSH; [5]): 0.243 μIU
Individual animal TSH (TSH; 6 h): 0.116 μIU and 0.140 μIU and 0.136 μIU and 0.120 μIU (2×) and 0.160 μIU
TSH, mean (TSH; [6]): 0.132 μIU
Individual animal TSH (TSH; 8 h): 0.080 μIU and 0.156 μIU and 0.152 μIU and 0.132 μIU and 0.108 μIU and 0.188 μIU
TSH, mean (TSH; [7]): 0.136 μIU
Individual animal TSH (TSH; 12 h): 0.120 μIU and 0.260 μIU and 0.256 μIU and 0.416 μIU and 0.300 μIU
TSH, mean (TSH; [8]): 0.270 μIU
TSH, mean (TSH; 12 h, mean n=6, oral 12 μg/kg T3, listed as T3): 0.27 μIU
TSH levels in response to administration (TSH): decreased rapidly

Total T3 AUC, % (of T3) [1]: 94.9%
Total T3Δ dAUC, % (of T3) [1]: 98.6%
Variability of T3 absorption compared with T3 sodium [1]: decreased variability of T3 absorption
mean level of Total T3 at 1 hour post dose ([1]; po): 429.5 ng/mL
Compound: CC(C)[C@H](N)C(=O)N[C@@H](Cc1cc(I)c(Oc2ccc(O)c(I)c2)c(I)c1)C(=O)O [V-T3]
TSH, mean (TSH; [2]): 2.309 μIU
TSH, mean (TSH; [3]): 2.212 μIU
TSH, mean (TSH; [4]): 1.123 μIU
TSH, mean (TSH; [5]): 0.282 μIU
TSH, mean (TSH; [6]): 0.174 μIU
TSH, mean (TSH; [7]): 0.175 μIU
TSH, mean (TSH; [8]): 0.54 μIU
TSH levels in response to administration (TSH): decreased rapidly

Total T3 AUC, % (of T3) [1]: 95.5%
Total T3Δ dAUC, % (of T3) [1]: 100.4%
Variability of T3 absorption compared with T3 sodium [1]: decreased variability of T3 absorption
mean level of Total T3 at 1 hour post dose ([1]; po): 403.3 ng/mL
Compound: N[C@@H](Cc1ccc(O)cc1)C(=O)N[C@@H](Cc1cc(I)c(Oc2ccc(O)c(I)c2)c(I)c1)C(=O)O [Y-T3]
TSH, mean (TSH; [2]): 2.595 μIU
TSH, mean (TSH; [3]): 2.648 μIU
TSH, mean (TSH; [4]): 1.601 μIU
TSH, mean (TSH; [5]): 0.471 μIU
TSH, mean (TSH; [6]): 0.27 μIU
TSH, mean (TSH; [7]): 0.221 μIU
TSH, mean (TSH; [8]): 0.651 μIU
TSH levels in response to administration (TSH): decreased rapidly
